Key:
[1] = target: streptokinase-induced fibrinolysis (fibrinogen, plasminogen, thrombin system); test: in vitro antifibrinolytic activity, 50% inhibition of streptokinase-induced fibrinolysis; format: biochemical; settings: for Actual amount of compound for 50% inhibition of 6 units of streptokinase: fibrinogen, plasminogen, thrombin plus 6 units of streptokinase
Protocol: Antifibrinolytic activity quantitative assay was conducted by a technique utilizing the procedures described by Christensen, L. E. in J. clin. Invest., volume 28 (1949), page 163, and Wasserman, A. E., et al. in J. Lab. clin. Med., volume 4 (1953), page 812. […] The system consists of fibrinogen, plasminogen, and thrombin, to which is added 6 units of streptokinase which produces a lytic effect. The 50% inhibition studied corresponds to a lytic activity of 3 units of streptokinase. […] The time necessary for the formed plasmin to dissolve a standard fibrin coagulum is determined.
The following table furnishes the data on the in vitro antifibrinolytic activity of the several compounds considered in this specification, expressed as 50% inhibition of 6 units of streptokinase: […]

fibrinolysis = settings: cited from earlier work
[2] = animal organism, i.e. the subject being treated; cited from earlier work

Row | Compound | Actual amount of compound for 50% inhibition of 6 units of streptokinase ([1]; in vitro) | antifibrinolytic activity ([1]; evaluation of the two separate AMCHA isomers) | antifibrinolytic activity in clinical use (fibrinolysis) | Relative activity ([1]; in vitro, 50% inhibition of 6 units of streptokinase, relative to EACA = 1) | excretion [2]
1 | NCC1CCC(C(=O)O)CC1 (single isomer, unassigned; isomer 4) [Active-AMCHA isomer, 4-aminomethyl-cyclohexane carboxylic acid] | 0.2 γ |  |  |  | 
2 | NCC1CCC(C(=O)O)CC1 (single isomer, unassigned; isomer 4) [Inactive-AMCHA isomer, 4-aminomethyl-cyclohexane carboxylic acid] | 30 γ | practically devoid of any antifibrinolytic activity |  |  | 
3 | NCC1CCC(C(=O)O)CC1 (single isomer, unassigned; isomer 4) [Isomeric AMCHA, comprising 10% active isomer, 4-aminomethyl-cyclohexane carboxylic acid] | 2 γ |  |  |  | 
4 | NCCCCCC(=O)O [EACA, epsilon-aminocaproicacid] | 4 γ |  | acceptable degree of antifibrinolytic activity | 1 | so rapidly excreted

— patent USRE30149E, “Preparation of antifibrinolytically active isomer of 4-aminomethylcyclohexane carboxylic acid” (AB Kabi, priority 1963, dated 1979)
